From US12629368B2, “Use of N-(3-(4-(3-(diisobutylamino)propyl)piperazin-1-yl)propyl)-1H-benzo[d]imidazol-2-amine sulphate salts and solvates thereof for the treatment of motor neuron diseases and neuromuscular junction disorders” (ALZPROTECT, priority 2020, dated 2026)

Experiments:
[1] = tested on: primary culture of rat spinal motor neurons; experiment: Rat primary spinal motor neurons injured with glutamate, 48 h co-incubation (Example 1); assay type: cell-based; details: 48 h incubation
Description: (§1) Rat motor neurons (MN) were cultured as previously described by Martinou et al., Neuron. 1992, April; 8(4), 737-44 and Wang et al. Hum. Mol. Genet., 2013 Dec. 1; 22(23), 4706-19. Pregnant female rats of 14 days gestation (Rats Wistar; Janvier Labs France) were killed using a deep anesthesia with CO2 followed by cervical dislocation. Then, fetuses were removed from the uterus and immediately placed in ice-cold L15 Leibovitz medium with a 2% penicillin (10,000 U/mL) and streptomycin (10 mg/mL) solution (PS) and 1% bovine serum albumin (BSA). Spinal cords were treated for 20 min at 37° C. with a trypsin-Ethylenediaminetetraacetic acid (EDTA) solution at a final concentration of 0.05% trypsin and 0.02% EDTA. The dissociation was stopped by the addition of Dulbecco's modified Eagle's medium (DMEM) with 4.5 g/liter of glucose, containing DNAse I grade II (final concentration 0.5 mg/mL) and 10% fetal calf serum (FCS). Cells were mechanically dissociated by three forced passages through the tip of a […]. Cells were then centrifuged at 180×g for 10 min at +4° C. on a layer of BSA (3.5%) in L15 medium. The supernatant was discarded, and the pellet was resuspended in a defined culture medium consisting of Neurobasal medium with a 2% solution of B27 supplement, 2 mmol/liter of L-glutamine, 2% of PS solution, and 10 ng/mL of brain-derived neurotrophic factor (BDNF). Viable cells were counted in a Neubauer cytometer, using the trypan blue exclusion test. The cells were seeded at a density of 20,000 per well in 96-well plates (immunostaining) precoated with poly-L-lysine and cultured at 37° C. in an air (95%)-CO2 (5%) incubator. The medium was changed every 2 days. The motor neurons were injured with glutamate after 13 days of culture.
On day 13 of culture, glutamate was added to a final concentration of 5 μM diluted in control medium in presence of the sulphate salt for 20 min. After 20 min, glutamate was washed and fresh culture medium with the sulphate salt was added for 48 hours.
(§2) After 14 or 15 days of culture (48 h after the glutamate injury), the cell culture supernatant was collected and the spinal cord MNs were fixed by a cold solution of ethanol (95%) and acetic acid (5%) for 5 min at −20° C. After permeabilization with 0.1% of saponin, cells were blocked for 2 h with PBS containing 1% fetal calf serum. Then, cells were incubated with: • a) mouse monoclonal antibody anti-microtubule associated protein 2 (MAP-2) at dilution of 1/400 in PBS containing 1% fetal calf serum and 0.1% of saponin. This antibody binds specifically MAP-2 present in cell bodies and neurites of all MNs. […] Nuclei of neurons were labeled by a fluorescent marker (Hoechst solution). • b) Rabbit polyclonal antibody anti-TDP43 at dilution of 1/100 in PBS containing 1% fetal calf serum and 0.1% of saponin. Cytoplasmic localization of TDP43 was investigated.
All images were taken under the same conditions (exposition time, gain and laser intensity). Analysis of different endpoints, were automatically performed using Custom Module Editor (Molecular Devices). […]
(§3) The endpoints were: • survival of MN (number of MN) • total neurite outgrowth of MN (expressed in μm) • TDP43 (extranuclear, eTDP43) in MN (expressed as area eTDP43-μm^2/number of MN) Statistical Analysis
All values are expressed as mean+/−SEM. […]

[2] = tested on: rat primary motor neurons; experiment: Rat primary motor neurons injured with glutamate, 24 h pre-treatment + 24 h post-injury treatment (Example 2); assay type: cell-based
Description: as §1, §2
All images were taken under the same conditions (exposition time, gain and laser intensity). Analysis of different endpoints, were automatically performed using Custom Module Editor (Molecular Devices). Motoneurons (MAP-2) were distinguished from interneurons (staining MAP-2) using the following morphological criteria: a cell body diameter […] and the presence of a minimum of three neuritic processes (Ferraiuolo et al. Brain 2011: 134; 2627-2641).
as §3
The culture was carried out as described in example 1.
On day 12 of culture, primary motor neurons were treated with the sulphate salt for 24 hours. […]

[3] = tested on: SOD1^G93A Tg rat spinal cord motor neurons; experiment: Primary culture of SOD1G93A Tg rat spinal cord motor neurons injured with glutamate (Example 3); assay type: cell-based
Description: The day of the dissection (from pregnant females at 14 days of gestation), a piece of each embryo head (˜3 mm^3) was placed in a 2 mL tube free DNase with a new scalpel. The DNA was extracted with the SYBR Green Extract-N-Amp tissue PCR kit (Sigma Aldrich). Briefly, 120 μL of extraction solution was put on each piece of embryo heads. Then, they were incubated for 10 min at room temperature. At the end of this incubation period, the heads were incubated for 5 min at 95° C. Immediately after this last incubation, 100 μL of neutralizing solution was added; each DNA extract was diluted at 1/40 and stored at +4° C. until use. SOD1^G93A gene was determined using genomic fragment with human SOD1 primers (5′-[…]-3′; 5′-[…]-3′). The SOD1 primers were diluted at 3 μM in sterile ultrapure water. Briefly, a mix for PCR was prepared with ultrapure water (4 μL per sample), primer at 3 μM (2 μL per sample) and Master Mix (10 μL per sample). In a PCR 96 wells plate, 16 μL of PCR mix was added in each well. 4 μL of each diluted DNA was added according to a plan deposit.
Rat spinal cord (SC) motor neurons were cultured as described by Martinou et al., Neuron. 1992, April; 8(4), 737-44 and Wang et al. Hum. Mol. Genet., 2013 Dec. 1; 22(23), 4706-19. Pregnant female rats of 14 days of gestation were killed by cervical dislocation. Fetuses were collected and immediately placed in ice-cold L15 Leibovitz medium with a 2% penicillin (10,000 U/mL) and streptomycin (10 mg/mL) solution (PS) and 1% bovine serum albumin (BSA). Each fetus was dispatched on numerating petri dish (35 mm of diameter). Tail of fetuses were cut, placed on 1.5 ml tube free DNAase; the DNA was extracted with the Extract-N-Amp Tissue Kit.
The genotyping of SOD tg fetuses was performed with the kit Fast SYBR Green Master Mix. This genotyping was made during the dissection of spinal cord, thus at the end of the dissection culture of SOD Tg spinal cord and WT spinal cord was done. Spinal cords were removed and placed in ice-cold medium of Leibovitz (L15). SC were treated for 20 min at 37° C. with a trypsin-EDTA solution at a final concentration of 0.05% trypsin and 0.02% EDTA. The dissociation was stopped by addition of Dulbecco's modified Eagle's medium (DMEM) with 4.5 g/liter of glucose, containing DNAse I grade II (final concentration 0.5 mg/mL) and 10% fetal calf serum (FCS). Cells were mechanically dissociated by three forced passages through the tip of a 10-ml pipette. Cells were then centrifuged at 180×g for 10 min at +4° C. on a layer of BSA (3.5%) in L15 medium. […] Viable cells were counted in a Neubauer cytometer, using the trypan blue exclusion test. […]

[4] = tested on: spinal cord/muscle neuromuscular junctions; experiment: Co-culture of human myoblasts and rat spinal cord explants injured with glutamate, neuromuscular junctions (Example 4); assay type: cell-based, human muscle cell line; details: 300 nM, glutamate 60 μM 20 min, 48 h
ALS [5] = details: injected intravenously, small subset of people with ALS, phase 3; cited from earlier work
ALS [6] = details: oral drug, ALS patients; cited from earlier work
[7] = dose dependence, 5 μM glutamate 20 min, 48 h

CC(C)CN(CCCN1CCN(CCCNc2nc3ccccc3[nH]2)CC1)CC(C)C.O=S(=O)(O)O.O=S(=O)(O)O [N-(3-(4-(3-(diisobutylamino)propyl)piperazin-1-yl)propyl)-1H-benzo[d]imidazol-2-amine di-sulphate]
Effect on motor neuron survival compared to the glutamate condition ([1]; 10 nM to 30 nM, 5 μM glutamate 20 min): positive and significant effect on survival | Neurite network integrity (mean length, percentage of control) ([1]; 30 nM (maximal effect), 5 μM glutamate 20 min): 80% | Motor neuron survival (mean survival, percentage of control) ([1]; 30 nM (maximal effect), 5 μM glutamate 20 min, glutamate alone 55%): 82% | Extranuclear TDP-43 (cytoplasmic accumulation) ([1]; 10 and 30 nM, 5 μM glutamate 20 min): able to prevent the accumulation of TDP-43 in the cytoplasm | Effect on neurite network after glutamate injury ([1]; all investigated doses): able to improve the neurite network after glutamate injury | Effect on motor neuron survival compared to the glutamate condition ([2]; 3 nM to 30 nM, 24 h pre-incubation + 24 h post-injury): positive and significant effect on survival | Extranuclear TDP-43 (abnormal distribution) ([2]; 10 nM to 30 nM, glutamate alone eTDP-43 signal 128% of control): able to fully prevent the abnormal distribution of TDP-43 | Neurite network integrity (mean length, percentage of control) ([2]; 30 nM (maximal effect), 24 h pre-incubation + 24 h post-injury): 91% | Motor neuron survival (mean survival, percentage of control) ([2]; 30 nM (maximal effect), 24 h pre-incubation + 24 h post-injury, glutamate alone 65%): 87% | Effect on neurite network (protection from glutamate damage) ([2]; all investigated doses, 24 h pre-incubation + 24 h post-injury): able to protect the neurite network from glutamate damage | Protective effects compared with Riluzole and Edaravone ([3]; 300 nM versus Riluzole 1 μM and Edaravone 5 μM): greater than those of Riluzole or Edaravone | Neuroprotection (number of MNs, neurite network, TDP-43 distribution) ([3]; all investigated doses, 5 μM glutamate 20 min, 48 h): neuroprotective | Protective effect on neuronal survival [3, 7]: dose-dependent | Protective effect on the distribution of TDP-43 [3, 7]: dose-dependent | Neuroprotective effect on neuromuscular junctions and neurite network against glutamatergic stress [4]: successfully protected the neuromuscular junctions and the neurite network | Number of NMJs [4]: increased | Total area of NMJs [4]: increased | Total neurite network [4]: increased

CC1=NN(c2ccccc2)C(=O)C1 [Edavarone]
Decline of ALS Functional Rating Scale-Revised score compared with placebo (ALS [5]): significantly smaller decline

Nc1nc2ccc(OC(F)(F)F)cc2s1 [Riluzole]
Effect on motor and respiratory functions (ALS [6]): no effect
